These results are taken from ChEMBL document CHEMBL5465560, “Selectivity Literature for EUbOPEN Chemogenomic Library” (2024).

For assay [1], the target named is T1, Serine/threonine-protein kinase haspin (Homo sapiens) (UniProt Q8TF76).
T1 sequence (whole entry): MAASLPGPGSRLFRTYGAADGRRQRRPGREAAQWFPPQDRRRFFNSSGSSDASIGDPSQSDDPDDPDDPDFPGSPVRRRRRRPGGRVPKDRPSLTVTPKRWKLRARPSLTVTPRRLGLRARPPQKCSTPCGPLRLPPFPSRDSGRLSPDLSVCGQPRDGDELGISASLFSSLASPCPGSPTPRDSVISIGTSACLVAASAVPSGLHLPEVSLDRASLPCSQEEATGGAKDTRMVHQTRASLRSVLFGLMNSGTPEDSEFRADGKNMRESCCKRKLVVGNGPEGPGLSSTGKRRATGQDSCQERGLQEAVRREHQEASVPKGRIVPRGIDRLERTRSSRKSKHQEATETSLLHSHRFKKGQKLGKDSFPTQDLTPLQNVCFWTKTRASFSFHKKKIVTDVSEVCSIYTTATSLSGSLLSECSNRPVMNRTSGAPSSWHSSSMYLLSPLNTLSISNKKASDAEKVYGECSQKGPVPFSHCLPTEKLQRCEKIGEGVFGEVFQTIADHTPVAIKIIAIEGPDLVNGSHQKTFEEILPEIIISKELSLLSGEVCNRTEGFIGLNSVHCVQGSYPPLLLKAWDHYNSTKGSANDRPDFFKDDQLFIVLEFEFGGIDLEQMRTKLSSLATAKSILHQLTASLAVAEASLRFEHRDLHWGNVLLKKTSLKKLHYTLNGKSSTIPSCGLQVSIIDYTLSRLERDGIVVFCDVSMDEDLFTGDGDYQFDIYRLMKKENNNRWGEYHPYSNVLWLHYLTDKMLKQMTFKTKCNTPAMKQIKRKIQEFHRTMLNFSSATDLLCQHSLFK
The assay can be described thus: Selectivity interaction (ProQinase) EUB0000171b GSG2.

Assay [2] deals with T2, Receptor-type tyrosine-protein kinase FLT3 (Homo sapiens), P36888 [D835Y].
T2 sequence (whole entry): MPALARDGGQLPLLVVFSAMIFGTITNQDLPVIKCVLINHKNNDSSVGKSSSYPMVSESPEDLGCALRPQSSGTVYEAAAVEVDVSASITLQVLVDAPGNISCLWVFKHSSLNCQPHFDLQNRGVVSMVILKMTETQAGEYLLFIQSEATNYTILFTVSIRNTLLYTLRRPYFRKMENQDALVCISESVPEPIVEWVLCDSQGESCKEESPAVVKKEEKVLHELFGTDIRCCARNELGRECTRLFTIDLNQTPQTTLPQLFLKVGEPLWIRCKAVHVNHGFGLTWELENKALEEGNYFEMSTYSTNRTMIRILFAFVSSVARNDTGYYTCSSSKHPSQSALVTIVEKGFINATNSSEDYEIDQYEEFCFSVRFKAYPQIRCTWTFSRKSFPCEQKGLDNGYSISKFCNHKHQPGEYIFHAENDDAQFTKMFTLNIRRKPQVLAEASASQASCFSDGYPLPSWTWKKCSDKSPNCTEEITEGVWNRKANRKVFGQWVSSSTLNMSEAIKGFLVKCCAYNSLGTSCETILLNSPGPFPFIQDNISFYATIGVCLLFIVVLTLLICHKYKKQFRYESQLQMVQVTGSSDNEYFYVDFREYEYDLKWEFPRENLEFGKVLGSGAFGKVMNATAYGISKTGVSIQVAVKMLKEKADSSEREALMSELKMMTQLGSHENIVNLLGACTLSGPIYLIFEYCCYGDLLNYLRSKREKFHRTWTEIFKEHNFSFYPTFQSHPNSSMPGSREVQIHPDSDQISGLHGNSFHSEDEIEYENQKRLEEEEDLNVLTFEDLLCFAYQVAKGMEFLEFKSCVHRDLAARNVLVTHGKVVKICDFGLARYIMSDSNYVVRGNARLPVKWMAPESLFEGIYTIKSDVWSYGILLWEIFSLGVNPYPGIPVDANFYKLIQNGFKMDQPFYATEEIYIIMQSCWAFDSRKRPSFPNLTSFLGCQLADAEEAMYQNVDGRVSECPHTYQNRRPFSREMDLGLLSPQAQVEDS
Conditions: at 10 µM.

The target of assay [3] is T3, Mitogen-activated protein kinase kinase kinase 6 (Homo sapiens) (UniProt O95382).
T3 sequence (whole entry): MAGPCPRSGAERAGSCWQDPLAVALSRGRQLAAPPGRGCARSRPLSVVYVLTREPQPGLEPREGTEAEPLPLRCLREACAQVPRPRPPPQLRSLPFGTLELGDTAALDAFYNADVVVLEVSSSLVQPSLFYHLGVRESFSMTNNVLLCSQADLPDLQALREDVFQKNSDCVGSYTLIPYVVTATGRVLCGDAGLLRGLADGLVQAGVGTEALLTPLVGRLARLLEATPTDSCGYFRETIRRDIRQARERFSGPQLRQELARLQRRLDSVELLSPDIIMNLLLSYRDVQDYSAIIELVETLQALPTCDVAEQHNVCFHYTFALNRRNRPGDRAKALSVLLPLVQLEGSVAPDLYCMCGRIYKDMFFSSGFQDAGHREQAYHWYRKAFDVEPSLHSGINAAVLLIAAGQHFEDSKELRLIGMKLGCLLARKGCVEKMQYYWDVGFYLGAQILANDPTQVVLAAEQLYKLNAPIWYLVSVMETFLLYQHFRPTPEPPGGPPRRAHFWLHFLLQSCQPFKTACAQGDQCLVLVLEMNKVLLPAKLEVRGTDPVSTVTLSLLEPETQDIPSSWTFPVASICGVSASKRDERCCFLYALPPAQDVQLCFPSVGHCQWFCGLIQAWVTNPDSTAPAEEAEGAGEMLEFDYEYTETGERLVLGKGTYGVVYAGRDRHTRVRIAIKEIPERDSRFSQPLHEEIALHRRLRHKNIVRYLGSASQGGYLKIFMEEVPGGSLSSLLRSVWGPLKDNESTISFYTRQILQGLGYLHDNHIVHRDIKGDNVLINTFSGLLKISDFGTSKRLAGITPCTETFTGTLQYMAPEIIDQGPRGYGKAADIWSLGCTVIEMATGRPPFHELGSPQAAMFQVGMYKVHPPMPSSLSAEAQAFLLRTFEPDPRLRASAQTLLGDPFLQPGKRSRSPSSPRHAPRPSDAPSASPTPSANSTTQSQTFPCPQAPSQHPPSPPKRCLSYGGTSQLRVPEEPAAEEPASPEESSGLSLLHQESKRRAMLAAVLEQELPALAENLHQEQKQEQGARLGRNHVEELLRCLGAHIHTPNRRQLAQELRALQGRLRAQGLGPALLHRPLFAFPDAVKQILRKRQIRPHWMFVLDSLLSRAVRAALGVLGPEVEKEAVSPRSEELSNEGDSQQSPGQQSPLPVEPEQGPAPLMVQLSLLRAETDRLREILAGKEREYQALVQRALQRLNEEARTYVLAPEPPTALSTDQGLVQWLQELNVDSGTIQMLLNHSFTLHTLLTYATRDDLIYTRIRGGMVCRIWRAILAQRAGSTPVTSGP
The assay can be described thus: Selectivity interaction (KinomeScan (DiscoverX)) EUB0000618a MAP3K6. The conditions noted are these: at 10 µM.

On to `C=CC(=O)Nc1cccc(C(=O)Nc2ccc(Nc3cc(-c4[nH]c(SC)nc4C)ccn3)cc2)c1`, for which the values for the % of control in assay [1] (at 1 µM) and in assay [1] (at 5 µM) were 84% and 56%, respectively.
As to `CCN(CC)CCCCNc1ncc2cc(-c3cc(OC)cc(OC)c3)c(NC(=O)NC(C)(C)C)nc2n1`, the % of control in assay [2] stood at 100%.
`O[C@H]1CC[C@H](Nc2ncc3nc(Nc4c(F)cc(F)cc4F)n([C@H]4CCOC4)c3n2)CC1`: in assay [3], the % of control amounted to 88%.
